Columns and labels:
human PPARα = target: T1, human PPARα (Homo sapiens, UniProt Q07869); assay: Gal4-hybrid reporter gene assay, PPARα activation; type: cell-based; conditions: hybrid reporter gene assay, result in words
T1 construct: expressed in transfected cells; host or cells: HEK293T
T1 sequence (Q07869 239-466 limits assumed): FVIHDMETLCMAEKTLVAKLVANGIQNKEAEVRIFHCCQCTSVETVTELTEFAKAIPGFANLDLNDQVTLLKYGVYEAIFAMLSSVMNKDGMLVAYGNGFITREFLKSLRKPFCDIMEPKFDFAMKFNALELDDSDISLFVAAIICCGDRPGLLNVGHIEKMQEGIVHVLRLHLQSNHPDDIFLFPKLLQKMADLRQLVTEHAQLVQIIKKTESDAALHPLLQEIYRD
Description: (§1) Compounds 1–3 were characterized in a hybrid reporter gene assay for their agoniztic effect on human nuclear receptors PPARα/γ/δ, RXRα, FXRα, RARα in HEK293T cells. Compound 1 was tested in an isothermal titration calorimetry (ITC) assay to measure direct binding affinity to the ligand-binding domain of PPARγ. ADME properties were measured in standardized assays at Roche.
PPAR activation was determined in uniform Gal4-hybrid reporter gene assays for the PPARα, PPARγ and PPARδ isoforms in HEK293T cells (German Collection of Microorganisms and Cell Culture GmbH, DSMZ) which were transiently transfected with pFR-Luc (Stratagene, La Jolla, CA, USA; reporter) and pRL-SV40 (Promega, Madison, WI, USA; internal control) and one pFA-CMV-hPPAR-LBD[97] clone, coding for the hinge region and ligand binding domain of the canonical isoform of human PPARα, PPARγ, PPARδ or respectively. Cells were cultured in Dulbecco’s modified Eagle’s medium (DMEM), high glucose supplemented with 10% fetal calf serum (FCS), sodium pyruvate (1 mM), penicillin (100 U ⋅ ml^-1), and streptomycin (100 μg ⋅ ml^-1) at 37 °C and 5% CO2 and seeded in 96-well plates (3 × 10^4 cells per well). After 24 h, medium was changed to Opti-MEM without supplements and cells were transiently transfected using Lipofectamine LTX reagent (Invitrogen) according to the manufacturer’s protocol. Five hours after transfection, cells were incubated with the test compounds in Opti-MEM supplemented with penicillin (100 U ⋅ ml^-1), streptomycin (100 μg ⋅ ml^-1) and 0.1% DMSO for 16 h before luciferase activity was measured using the Dual-Glo Luciferase Assay System (Promega) according to the manufacturer’s protocol on a Tecan Spark luminometer (Tecan Deutschland GmbH, Germany). Firefly luminescence was divided by Renilla luminescence and multiplied by 1000 resulting in relative light units (RLU) to normalize for transfection efficiency and cell growth. Fold activation was obtained by dividing the mean RLU of a test compound by the mean RLU of the untreated control. All samples were tested in at least three biologically independent experiments in duplicates. For dose-response curve fitting and calculation of EC50 values, the equation “[Agonist] versus response (variable slope—four parameters)” was used in GraphPad Prism (version 7.00, GraphPad Software, La Jolla, CA, USA) with fold activation data. The reference agonizts GW7647 (PPARα)[98],[99], pioglitazone (PPARγ)[100],[101] and L165,041 (PPARδ)[102],[103] were used to validate the assays and to monitor assay performance. Nuclear receptor selectivity profiling was performed with corresponding pFA-CMV-hNR-LBD clones and suitable reference agonizts on RARα (pFA-CMV-hRARα-LBD[104], 1 μM tretinoin), LXRα (pFA-CMV-hLXRα-LBD[104], 1 μM TO901317) and RXRα (pFA-CMV-h RXRα-LBD[105], 1 μM Bexarotene).

PPARγ LBD protein = target: T2, PPARγ LBD protein (Homo sapiens, UniProt P37231); assay: Isothermal titration calorimetry (ITC); type: binding
T2 construct: PPARγ LBD protein (30 μM, prepared as described previously[106]); made in house
Description: as §1
ITC experiments were conducted on an Affinity ITC instrument (TA Instruments, New Castle, DE) at 25 °C with a stirring rate of 75 rpm. PPARγ LBD protein (30 μM, prepared as described previously[106]) in buffer (20 mM Tris pH 7.5, 150 mM NaCl, 5% glycerol) containing 5% DMSO was titrated with the test compound (1) (100 μM in the same buffer containing 5% DMSO) in 21 injections (1 × 1μl and 20 × 5μl) with an injection interval of 120 s. The test compound was titrated into buffer, and the buffer was titrated to the PPARγ LBD proteins under otherwise identical conditions. The ITC results were analyzed using NanoAnalyze software (TA Instruments, New Castle, DE) with an independent binding model.

T2 sequence (P37231 238-503 limits assumed): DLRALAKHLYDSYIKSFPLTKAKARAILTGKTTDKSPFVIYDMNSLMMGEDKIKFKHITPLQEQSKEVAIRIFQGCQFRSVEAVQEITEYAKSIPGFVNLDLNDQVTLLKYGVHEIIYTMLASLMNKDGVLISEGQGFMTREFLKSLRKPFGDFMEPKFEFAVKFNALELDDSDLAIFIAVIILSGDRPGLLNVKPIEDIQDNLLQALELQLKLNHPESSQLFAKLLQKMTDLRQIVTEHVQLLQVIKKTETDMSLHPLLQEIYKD

SMILES | activity on PPARα (human PPARα) | molar ratio (ligand per protein) (PPARγ LBD protein) | Kd (PPARγ LBD protein; 25 °C, ligand binding domain of PPARγ, read-out: dissociation constant KD)
COc1ccc(Oc2ccc3ncn(CCOc4ccc(CCC(=O)O)cc4)c3c2)cc1 [Compound 2] | no discernible impact |  | 
Cc1nnc(-c2ccc(OCCCOc3ccc(CCC(=O)O)c(F)c3)c(F)c2)s1 [Compound 1] |  | one ligand per protein molecule | 800 ± 100 nM
